Laboratory results published in patent US10968227B2, “Isoquinoline ether compounds as mGluR4 allosteric potentiators, compositions, and methods of treating neurological dysfunction” (Vanderbilt University, priority 2016, dated 2021).
≈ marks a conversion by molar mass, not a printed value.

What was measured:
[1] = Rat intrinsic and hepatic clearance; assay type: in vitro ADME
[2] = Human intrinsic and hepatic clearance; assay type: in vitro ADME
Kinetic solubility = assay type: physicochemical; settings: kinetic from dmso stock
[3] = Rat plasma fraction unbound; assay type: in vitro ADME; settings: read-out: Rat Fu Plasma
[4] = Rat brain fraction unbound; assay type: in vitro ADME; settings: read-out: Rat Fu Brain
Brain-plasma partition = assay type: in vivo; settings: rat; for unbound brain-to-plasma partition coefficient (Kp,uu): unbound brain-plasma ratio, read-out: Brain-Plasma Kp,ω
[5] = Human plasma fraction unbound; assay type: in vitro ADME; settings: read-out: Human Fu Plasma
1A2 = 1A2 (Homo sapiens (Human), UniProt P05177); assay: CYP 1A2 inhibition; assay type: in vitro ADME
Chain of 1A2 (P05177 whole entry): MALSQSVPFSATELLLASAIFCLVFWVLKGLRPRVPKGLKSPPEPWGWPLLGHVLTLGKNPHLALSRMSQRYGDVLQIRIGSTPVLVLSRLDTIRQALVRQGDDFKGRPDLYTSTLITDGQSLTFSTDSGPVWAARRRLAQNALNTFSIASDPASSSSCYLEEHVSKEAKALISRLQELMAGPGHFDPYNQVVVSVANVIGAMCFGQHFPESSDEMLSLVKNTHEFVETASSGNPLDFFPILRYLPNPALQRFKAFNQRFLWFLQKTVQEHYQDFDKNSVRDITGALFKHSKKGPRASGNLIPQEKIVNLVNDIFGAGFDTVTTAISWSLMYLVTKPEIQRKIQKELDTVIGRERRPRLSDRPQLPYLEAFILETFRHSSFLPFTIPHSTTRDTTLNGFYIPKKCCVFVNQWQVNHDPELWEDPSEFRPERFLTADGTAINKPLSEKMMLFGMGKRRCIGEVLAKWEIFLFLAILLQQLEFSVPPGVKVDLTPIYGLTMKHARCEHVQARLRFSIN

2C9 = 2C9 (Homo sapiens (Human), UniProt P11712); assay: CYP 2C9 inhibition; assay type: in vitro ADME
Chain of 2C9 (P11712 whole entry): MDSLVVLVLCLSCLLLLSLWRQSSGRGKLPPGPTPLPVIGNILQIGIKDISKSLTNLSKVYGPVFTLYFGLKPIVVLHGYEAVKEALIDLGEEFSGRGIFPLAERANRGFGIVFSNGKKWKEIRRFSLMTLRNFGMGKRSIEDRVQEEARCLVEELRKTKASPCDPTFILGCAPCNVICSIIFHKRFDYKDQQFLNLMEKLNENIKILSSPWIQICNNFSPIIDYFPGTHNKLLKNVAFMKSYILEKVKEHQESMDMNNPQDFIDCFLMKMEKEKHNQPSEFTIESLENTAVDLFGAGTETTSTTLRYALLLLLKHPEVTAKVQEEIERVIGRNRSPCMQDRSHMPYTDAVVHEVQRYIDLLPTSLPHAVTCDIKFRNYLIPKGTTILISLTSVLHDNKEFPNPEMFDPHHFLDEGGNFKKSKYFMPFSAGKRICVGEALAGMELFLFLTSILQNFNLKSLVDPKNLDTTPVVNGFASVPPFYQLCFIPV

2D6 = 2D6 (Homo sapiens (Human), UniProt P10635); assay: CYP 2D6 inhibition; assay type: in vitro ADME
Chain of 2D6 (P10635 whole entry): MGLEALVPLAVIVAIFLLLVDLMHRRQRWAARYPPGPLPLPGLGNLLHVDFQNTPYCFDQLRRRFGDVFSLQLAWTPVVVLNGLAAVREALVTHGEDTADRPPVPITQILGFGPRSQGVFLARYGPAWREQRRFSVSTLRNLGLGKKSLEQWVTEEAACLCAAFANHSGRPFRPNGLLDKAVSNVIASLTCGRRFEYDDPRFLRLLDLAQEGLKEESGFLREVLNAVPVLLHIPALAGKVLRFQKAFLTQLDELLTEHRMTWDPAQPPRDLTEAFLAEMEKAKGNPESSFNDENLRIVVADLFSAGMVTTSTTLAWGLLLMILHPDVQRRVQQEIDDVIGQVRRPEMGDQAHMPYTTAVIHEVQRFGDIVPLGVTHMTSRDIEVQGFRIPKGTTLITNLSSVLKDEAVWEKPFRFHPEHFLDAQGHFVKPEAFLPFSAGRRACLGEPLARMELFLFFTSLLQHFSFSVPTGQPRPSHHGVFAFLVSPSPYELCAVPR

3A4 = 3A4 (Homo sapiens (Human), UniProt P08684); assay: CYP 3A4 inhibition; assay type: in vitro ADME
Chain of 3A4 (P08684 whole entry): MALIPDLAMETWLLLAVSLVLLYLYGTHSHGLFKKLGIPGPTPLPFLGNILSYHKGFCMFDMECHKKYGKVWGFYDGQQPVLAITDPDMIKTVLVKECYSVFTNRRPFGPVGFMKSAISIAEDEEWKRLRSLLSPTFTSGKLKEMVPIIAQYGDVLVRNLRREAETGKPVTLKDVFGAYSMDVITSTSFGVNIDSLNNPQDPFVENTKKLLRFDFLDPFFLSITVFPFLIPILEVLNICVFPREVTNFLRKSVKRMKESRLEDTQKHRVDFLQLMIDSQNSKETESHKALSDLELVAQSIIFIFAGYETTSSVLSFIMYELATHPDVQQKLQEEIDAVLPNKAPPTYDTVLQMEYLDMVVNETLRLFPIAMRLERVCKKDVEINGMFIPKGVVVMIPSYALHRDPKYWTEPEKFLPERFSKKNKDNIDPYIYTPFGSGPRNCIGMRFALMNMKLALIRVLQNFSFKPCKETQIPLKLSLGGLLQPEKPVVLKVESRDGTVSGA

Row | Compound | CLint scaled [1] [mL/min/kg] | Rat CLhep [1] [mL/min/kg] | CLint scaled [2] [mL/min/kg] | Human CLhep [2] [mL/min/kg] | solubility kinetic (Kinetic solubility) [µM] | fraction unbound [3] | fraction unbound [4] | Kp (Brain-plasma partition) | unbound brain-to-plasma partition coefficient (Kp,uu) (Brain-plasma partition) | fraction unbound [5] | IC50 (1A2) [µM] | IC50 (2C9) [µM] | IC50 (2D6) [µM] | IC50 (3A4) [µM]
1 | COCCOc1nccc2cc(Nc3n[nH]c4ccccc34)ccc12 [Compound 98] | 216 | 52.9 | 30 | 12.4 | 1.6 ± 0.2 (≈ 0.535 µg/mL) |  |  |  |  |  |  |  |  | 
2 | c1cnc2c(Nc3ccc4c(OCC5CCCOC5)nccc4c3)n[nH]c2c1 (centres unmarked) [Compound 72] | 273 | 55.7 | 55.7 | 15.2 |  | 0.008 | 0.002 | 0.52 | 0.13 | 0.009 | 12.9 | 3.15 | 24.6 | 22.7
3 | C[C@H]1OCC[C@H]1Oc1nccc2cc(Nc3n[nH]c4ncccc34)ccc12 [Compound 92] | 518 | 61.7 | 129 | 18.1 | 0.9 ± 0.2 (≈ 0.325 µg/mL) |  |  |  |  |  |  |  |  | 
4 | COCCOc1nccc2cc(Nc3n[nH]c4nccnc34)ccc12 [Compound 81] | 74.4 | 36.1 | 38.5 | 13.6 | 0.9 ± 0.2 (≈ 0.303 µg/mL) | 0.048 | 0.015 | 0.4 | 0.13 | 0.032 | 0.79 | > 30 | > 30 | > 30
5 | C[C@H]1OCC[C@H]1Oc1nccc2cc(Nc3n[nH]c4cccnc34)ccc12 [Compound 91] | 377 | 59.0 | 109 | 17.6 | 3.3 ± 0.2 (≈ 1.19 µg/mL) |  |  |  |  |  |  |  |  | 
6 | c1cnc2c(Nc3ccc4c(OCCN5CCOCC5)nccc4c3)n[nH]c2c1 [Compound 93] | 718 | 63.8 | 136 | 18.2 | 20.5 ± 2.1 (≈ 8 µg/mL) |  |  |  |  |  |  |  |  | 
7 | c1cnc2c(Nc3ccc4c(O[C@@H]5CCOC5)nccc4c3)n[nH]c2c1 [Compound 63] | 181 | 50.5 | 57.8 | 15.4 |  | 0.036 | 0.005 | 1.27 | 0.18 | 0.018 | 3.96 | 13.3 | > 30 | 22.3
8 | CO[C@H](C)COc1nccc2cc(Nc3n[nH]c4nccnc34)ccc12 [Compound 84] | 145 | 47.2 | 75.3 | 16.4 |  | 0.027 | 0.008 | 1.11 | 0.33 | 0.019 |  |  |  | 
9 | CO[C@H](C)COc1nccc2cc(Nc3n[nH]c4ncccc34)ccc12 [Compound 78] |  |  |  |  |  | 0.042 | 0.004 | 0.99 | 0.09 | 0.023 |  |  |  | 
10 | c1cc2cc(Nc3n[nH]c4nccnc34)ccc2c(O[C@H]2CCOC2)n1 [Compound 59] |  |  |  |  | 2.6 ± 1.6 (≈ 0.906 µg/mL) |  |  |  |  |  |  |  |  | 
11 | Fc1cnc2c(Nc3ccc4c(OCC5COCCO5)nccc4c3)n[nH]c2c1 (centres unmarked) [Compound 100] | 156 | 48.3 | 46.1 | 14.4 | 1.1 ± 0.6 (≈ 0.435 µg/mL) |  |  |  |  |  |  |  |  | 
12 | COCCOc1nccc2cc(Nc3n[nH]c4ncccc34)ccc12 [Compound 74] | 252 | 54.8 | 32.3 | 12.7 | 0.8 ± 0.3 (≈ 0.268 µg/mL) | 0.041 | 0.007 | 0.59 | 0.1 | 0.038 | > 30 | > 30 | > 30 | > 30
13 | c1cnc2[nH]nc(Nc3ccc4c(OCC5CCCCO5)nccc4c3)c2c1 (centres unmarked) [Compound 76] |  |  |  |  |  | 0.01 | 0.001 | 1.27 | 0.13 | 0.008 |  |  |  | 
14 | Fc1cnc2[nH]nc(Nc3ccc4c(OC5CCOCC5)nccc4c3)c2c1 [Compound 99] | 227 | 53.5 | 36.8 | 13.4 | 0.7 ± 0.2 (≈ 0.266 µg/mL) |  |  |  |  |  |  |  |  | 
15 | c1cnc2[nH]nc(Nc3ccc4c(OCCN5CCOCC5)nccc4c3)c2c1 [Compound 94] | 923 | 65.1 | 87.6 | 16.9 | 15.2 ± 1.5 (≈ 5.93 µg/mL) |  |  |  |  |  |  |  |  | 
16 | Fc1cnc2c(Nc3ccc4c(O[C@H]5CCOC5)nccc4c3)n[nH]c2c1 [Compound 95] | 127 | 45.1 | 40.3 | 13.6 | 0.4 (≈ 0.146 µg/mL) |  |  |  |  |  |  |  |  | 
17 | c1cnc2[nH]nc(Nc3ccc4c(O[C@H]5CCOC5)nccc4c3)c2c1 [Compound 66] | 210 | 52.5 | 37.9 | 13.5 |  | 0.047 | 0.006 | 0.87 | 0.11 | 0.019 | > 30 | > 30 | > 30 | > 30
18 | c1cnc2c(Nc3ccc4c(O[C@@H]5CCCOC5)nccc4c3)n[nH]c2c1 [Compound 62] | 461 | 60.8 | 58.3 | 15.4 | 10.3 ± 1.1 (≈ 3.72 µg/mL) | 0.038 | 0.004 | 3.38 | 0.36 | 0.017 | 6.32 | 3.96 | 27.8 | 4.76
19 | c1cnc2[nH]nc(Nc3ccc4c(OCC5CCOCC5)nccc4c3)c2c1 [Compound 77] |  |  |  |  |  | 0.008 | 0.002 | 1.59 | 0.4 | 0.013 |  |  |  | 
20 | CCOCCOc1nccc2cc(Nc3n[nH]c4ncccc34)ccc12 [Compound 75] | 456 | 60.7 | 71.8 | 16.2 |  | 0.031 | 0.004 | 1 | 0.13 | 0.021 |  |  |  | 
21 | c1cnc2c(Nc3ccc4c(OCC5CCOCC5)nccc4c3)n[nH]c2c1 [Compound 68] |  |  |  |  |  | 0.009 | 0.001 | 1.06 | 0.12 | 0.008 |  |  |  | 
22 | c1cnc2[nH]nc(Nc3ccc4c(OCC5CCOC5)nccc4c3)c2c1 (centres unmarked) [Compound 79] |  |  |  |  | < 0.4 | 0.019 | 0.002 | 1.5 | 0.16 | 0.018 |  |  |  | 
23 | COCCOc1nccc2cc(Nc3n[nH]c4ncc(F)cc34)ccc12 [Compound 96] | 327 | 57.7 | 37 | 13.4 | 0.3 ± 0.2 (≈ 0.106 µg/mL) |  |  |  |  |  |  |  |  | 
24 | COCCOc1nccc2cc(Nc3n[nH]c4cc(F)cnc34)ccc12 [Compound 97] | 161 | 48.8 | 96.8 | 17.3 | 1 ± 0.1 (≈ 0.353 µg/mL) |  |  |  |  |  |  |  |  | 
25 | c1cnc2c(Nc3ccc4c(OCC5CCOC5)nccc4c3)n[nH]c2c1 (centres unmarked) [Compound 71] | 151 | 47.8 | 41.1 | 13.9 |  | 0.024 | 0.003 | 0.8 | 0.1 | 0.015 | 8.48 | 4.59 | 19.7 | 15.4
26 | c1cc2cc(Nc3n[nH]c4nccnc34)ccc2c(OCC2CCOCC2)n1 [Compound 82] | 154 | 48.1 | 67.6 | 15.4 | 0.5 ± 0.2 (≈ 0.188 µg/mL) | 0.02 | 0.004 | 0.47 | 0.09 | 0.02 |  |  |  | 
27 | CCOCCOc1nccc2cc(Nc3n[nH]c4cccnc34)ccc12 [Compound 69] |  |  |  |  | 9.9 ± 2.7 (≈ 3.46 µg/mL) | 0.023 | 0.005 | 1.23 | 0.27 | 0.017 |  |  |  | 
28 | C[C@@H]1C[C@H](Oc2nccc3cc(Nc4n[nH]c5cccnc45)ccc23)CO1 [Compound 89] | 204 | 52.1 | 37.8 | 13.5 | 2.7 ± 0.4 (≈ 0.976 µg/mL) |  |  |  |  |  |  |  |  | 
29 | c1cnc2[nH]nc(Nc3ccc4c(O[C@@H]5CCOC5)nccc4c3)c2c1 [Compound 65] |  |  |  |  |  | 0.043 | 0.003 | 1.28 | 0.09 | 0.028 |  |  |  | 
